Data taken from PubChem BioAssay AID222 (DTP/NCI, 2004).
Several values for one entry are separate records, joined by “and”; a condition that tells them apart may be missing. Identical values can stand only once. Inconclusive results and toxic doses are left out.

System: C57BL/6 mice, intracerebral ependymoblastoma, median survival T/C
Test: NCI In Vivo Anticancer Drug Screen. Data for tumor model Ependymoblastoma (intracerebral) in C57BL/6 mice
Details: endpoint: median survival time, higher = longer survival
Protocol: The antitumor activity of compounds was measured in mice bearing transplantable tumors. Survival or tumor size were measured and the results are expressed as the measurement made in the treated group (T) divided by the measurement made in the vehicle treated control group (C). The tumor model used in this assay is Ependymoblastoma (intracerebral) in C57BL/6 mice

[1] = dose: 1.0 mg/kg/injection, schedule: Q01DX005 (ip), vehicle: saline
[2] = dose: 2.0 mg/kg/injection, schedule: Q01DX005 (ip), vehicle: saline
[3] = dose: 8.0 mg/kg/injection, schedule: Q01DX005 (ip), vehicle: Klucel (hydroxypropylcellulose) (HPC)
[4] = dose: 16.0 mg/kg/injection, schedule: Q01DX005 (ip), vehicle: Klucel (hydroxypropylcellulose) (HPC)
[5] = dose: 32.0 mg/kg/injection, schedule: Q01DX005 (ip), vehicle: saline
[6] = dose: 64.0 mg/kg/injection, schedule: Q01DX005 (ip), vehicle: saline
[7] = dose: 128.0 mg/kg/injection, schedule: Q01DX005 (ip), vehicle: saline
[8] = dose: 32.0 mg/kg/injection, schedule: Q01DX005 (ip), vehicle: Klucel (hydroxypropylcellulose) (HPC)
[9] = dose: 64.0 mg/kg/injection, schedule: Q01DX005 (ip), vehicle: Klucel (hydroxypropylcellulose) (HPC)
[10] = dose: 0.12 mg/kg/injection, schedule: Q01DX005 (ip), vehicle: saline

Q: What does the source list for O=C1NC2(CCCCC2)C(=O)N1CCN(CCCl)CCCl?
A: T/C (dose: 0.75 mg/kg/injection, schedule: Q01DX009 (ip), vehicle: Klucel (hydroxypropylcellulose) (HPC)): 101 % of control; T/C (dose: 1.0 mg/kg/injection, schedule: Q01DX005 (ip), vehicle: Klucel (hydroxypropylcellulose) (HPC)): 101 % of control; T/C [1]: 105 % of control; T/C (dose: 1.5 mg/kg/injection, schedule: Q01DX009 (ip), vehicle: Klucel (hydroxypropylcellulose) (HPC)): 100 % of control; T/C (dose: 2.0 mg/kg/injection, schedule: Q01DX005 (ip), vehicle: Klucel (hydroxypropylcellulose) (HPC)): 105 % of control; T/C [2]: 93 % of control and 108 % of control; T/C (dose: 3.0 mg/kg/injection, schedule: Q01DX009 (ip), vehicle: Klucel (hydroxypropylcellulose) (HPC)): 106 % of control; T/C (dose: 4.0 mg/kg/injection, schedule: Q01DX005 (ip), vehicle: Klucel (hydroxypropylcellulose) (HPC)): 102 % of control; T/C (dose: 6.25 mg/kg/injection, schedule: Q01DX005 (ip), vehicle: Klucel (hydroxypropylcellulose) (HPC)): 119 % of control; T/C [3]: 94 % of control and 107 % of control; T/C (dose: 12.5 mg/kg/injection, schedule: Q01DX005 (ip), vehicle: Klucel (hydroxypropylcellulose) (HPC)): 114 % of control; T/C [4]: 97 % of control; T/C [5]: 111 % of control

Q: With c1cc2n(n1)CCN2 as the compound, how does the T/C [5] read?
A: 108 % of control

Q: What about the T/C [6] of the same compound?
A: 100 % of control

Q: And the T/C [7]?
A: 102 % of control

Q: For CCN(CC)CCOc1ccc(/C(=C(\Cl)c2ccccc2)c2ccccc2)cc1, which T/C [3] is on record?
A: 97 % of control and 99 % of control

Q: What about the T/C [4] of the same compound?
A: 97 % of control and 108 % of control

Q: What about the T/C [8] of the same compound?
A: 95 % of control and 112 % of control

Q: And the T/C (dose: 32.0 mg/kg/injection, schedule: Q01DX005 (oral), vehicle: Klucel (hydroxypropylcellulose) (HPC))?
A: 101 % of control

Q: What about the T/C [9] of the same compound?
A: 88 % of control and 95 % of control

Q: What about the T/C (dose: 64.0 mg/kg/injection, schedule: Q01DX005 (oral), vehicle: Klucel (hydroxypropylcellulose) (HPC)) of the same compound?
A: 104 % of control

Q: And the T/C (dose: 128.0 mg/kg/injection, schedule: Q01DX005 (oral), vehicle: Klucel (hydroxypropylcellulose) (HPC))?
A: 96 % of control

Q: For COC1C(CO)OC(n2cnc3c(=S)nc(N)[nH]c32)C1O (configuration not stated), which T/C (dose: 100.0 mg/kg/injection, schedule: Q01DX005 (ip), vehicle: Klucel (hydroxypropylcellulose) (HPC)) is on record?
A: 91 % of control

Q: For O=CC(NC(=O)N(CCCl)N=O)C(O)C(O)C(O)CO (configuration not stated), which T/C (dose: 0.12 mg/kg/injection, schedule: Q01DX005 (ip), vehicle: Klucel (hydroxypropylcellulose) (HPC)) is on record?
A: 95 % of control

Q: And the T/C [10]?
A: 96 % of control and 104 % of control

Q: What about the T/C (dose: 0.13 mg/kg/injection, schedule: Q01DX005 (ip), vehicle: Klucel (hydroxypropylcellulose) (HPC)) of the same compound?
A: 88 % of control

Q: What about the T/C (dose: 0.13 mg/kg/injection, schedule: Q01DX005 (ip), vehicle: saline) of the same compound?
A: 89 % of control and 105 % of control

Q: And the T/C (dose: 0.25 mg/kg/injection, schedule: Q01DX005 (ip), vehicle: Klucel (hydroxypropylcellulose) (HPC))?
A: 96 % of control and 123 % of control

Q: And the T/C (dose: 0.5 mg/kg/injection, schedule: Q01DX005 (ip), vehicle: Klucel (hydroxypropylcellulose) (HPC))?
A: 97 % of control and 99 % of control

Q: What about the T/C (dose: 1.0 mg/kg/injection, schedule: Q01DX001 (ip), vehicle: Klucel (hydroxypropylcellulose) (HPC)) of the same compound?
A: 96 % of control

Q: What about the T/C (dose: 2.0 mg/kg/injection, schedule: Q01DX001 (ip), vehicle: Klucel (hydroxypropylcellulose) (HPC)) of the same compound?
A: 100 % of control

Q: And the T/C (dose: 4.0 mg/kg/injection, schedule: Q01DX001 (ip), vehicle: Klucel (hydroxypropylcellulose) (HPC))?
A: 97 % of control

Q: And the T/C (dose: 8.0 mg/kg/injection, schedule: Q01DX001 (ip), vehicle: Klucel (hydroxypropylcellulose) (HPC))?
A: 96 % of control

Q: And the T/C (dose: 16.0 mg/kg/injection, schedule: Q01DX001 (ip), vehicle: Klucel (hydroxypropylcellulose) (HPC))?
A: 114 % of control

Q: What about the T/C (dose: 32.0 mg/kg/injection, schedule: Q01DX005 (oral), vehicle: saline) of the same compound?
A: 108 % of control

Q: What about the T/C (dose: 64.0 mg/kg/injection, schedule: Q01DX001 (oral), vehicle: saline) of the same compound?
A: 89 % of control

Q: And the T/C (dose: 64.0 mg/kg/injection, schedule: Q01DX005 (oral), vehicle: saline)?
A: 89 % of control

Q: What about the T/C (dose: 128.0 mg/kg/injection, schedule: Q01DX001 (oral), vehicle: saline) of the same compound?
A: 98 % of control

Q: What about the T/C (dose: 256.0 mg/kg/injection, schedule: Q01DX001 (oral), vehicle: saline) of the same compound?
A: 99 % of control

Q: What about the T/C (dose: 512.0 mg/kg/injection, schedule: Q01DX001 (oral), vehicle: saline) of the same compound?
A: 95 % of control

Q: What about the T/C (dose: 1024.0 mg/kg/injection, schedule: Q01DX001 (oral), vehicle: saline) of the same compound?
A: 99 % of control

Q: CCC(=O)O[C@H]1CC[C@H]2[C@@H]3CCC4=CC(=O)CC[C@]4(C)[C@H]3CC[C@]12C was tested. Which T/C (dose: 8.0 mg/kg/injection, schedule: Q01DX005 (ip), vehicle: saline) did it give?
A: 91 % of control and 98 % of control

Q: What about the T/C (dose: 16.0 mg/kg/injection, schedule: Q01DX005 (ip), vehicle: saline) of the same compound?
A: 90 % of control and 102 % of control

Q: And the T/C [5]?
A: 93 % of control and 100 % of control

Q: And the T/C [6]?
A: 98 % of control and 99 % of control

Q: And the T/C [7]?
A: 90 % of control

Q: And the T/C (dose: 256.0 mg/kg/injection, schedule: Q01DX005 (ip), vehicle: saline)?
A: 89 % of control and 94 % of control

Q: What about the T/C (dose: 512.0 mg/kg/injection, schedule: Q01DX005 (ip), vehicle: saline) of the same compound?
A: 91 % of control and 99 % of control

Q: CC(=O)[C@]1(O)Cc2c(O)c3c(c(O)c2[C@@H](OC2CC(N)C(O)C(C)O2)C1)C(=O)c1c(O)cccc1C3=O (some centres not stated) was tested. Which T/C (dose: 7.8 micrograms/kg/injection, schedule: Q01DX005 (ip), vehicle: suspension in saline) did it give?
A: 102 % of control

Q: What about the T/C (dose: 15.6 micrograms/kg/injection, schedule: Q01DX005 (ip), vehicle: suspension in saline) of the same compound?
A: 104 % of control

Q: And the T/C (dose: 31.0 micrograms/kg/injection, schedule: Q01DX005 (ip), vehicle: suspension in saline)?
A: 101 % of control

Q: What about the T/C (dose: 62.5 micrograms/kg/injection, schedule: Q01DX005 (ip), vehicle: suspension in saline) of the same compound?
A: 99 % of control

Q: What about the T/C (dose: 125.0 micrograms/kg/injection, schedule: Q01DX005 (ip), vehicle: suspension in saline) of the same compound?
A: 114 % of control

Q: With CC(C)=CCC1=C(O)c2ccccc2C(=O)C1=O as the compound, how does the T/C [8] read?
A: 100 % of control

Q: What about the T/C [9] of the same compound?
A: 94 % of control

Q: What about the T/C (dose: 128.0 mg/kg/injection, schedule: Q01DX005 (ip), vehicle: Klucel (hydroxypropylcellulose) (HPC)) of the same compound?
A: 97 % of control

Q: What does the source list for CNc1nc(N(C)C)nc(N(C)C)n1?
A: T/C (dose: 3.12 mg/kg/injection, schedule: Q01DX005 (ip), vehicle: saline): 103 % of control; T/C (dose: 6.25 mg/kg/injection, schedule: Q01DX005 (ip), vehicle: saline): 96 % of control; T/C (dose: 12.5 mg/kg/injection, schedule: Q01DX005 (ip), vehicle: saline): 97 % of control; T/C (dose: 25.0 mg/kg/injection, schedule: Q01DX005 (ip), vehicle: saline): 108 % of control; T/C (dose: 50.0 mg/kg/injection, schedule: Q01DX005 (ip), vehicle: saline): 100 % of control; T/C (dose: 100.0 mg/kg/injection, schedule: Q01DX005 (ip), vehicle: saline): 113 % of control

Q: What does the source list for COc1cc([C@@H]2c3cc4c(cc3[C@@H](OC3OC5CO[C@@H](c6cccs6)OC5C(O)C3O)[C@H]3COC(=O)[C@H]23)OCO4)cc(OC)c1O (some centres not stated)?
A: T/C (dose: 0.06 mg/kg/injection, schedule: Q01DX005 (ip), vehicle: saline): 101 % of control; T/C [10]: 95 % of control; T/C (dose: 0.25 mg/kg/injection, schedule: Q01DX005 (ip), vehicle: saline): 97 % of control; T/C (dose: 0.5 mg/kg/injection, schedule: Q01DX005 (ip), vehicle: saline): 99 % of control; T/C [1]: 104 % of control; T/C (dose: 1.0 mg/kg/injection, schedule: Q01DX005 (oral), vehicle: saline): 101 % of control; T/C [2]: 114 % of control; T/C (dose: 4.0 mg/kg/injection, schedule: Q01DX005 (oral), vehicle: saline): 104 % of control; T/C (dose: 8.0 mg/kg/injection, schedule: Q01DX005 (oral), vehicle: saline): 100 % of control; T/C (dose: 16.0 mg/kg/injection, schedule: Q01DX005 (oral), vehicle: saline): 95 % of control

Q: For c1ccc([C@H]2CN3CCSC3=N2)cc1, which T/C (dose: 5.0 mg/kg/injection, schedule: Q01DX005 (ip), vehicle: saline) is on record?
A: 103 % of control

Q: And the T/C (dose: 5.0 mg/kg/injection, schedule: Q01DX009 (ip), vehicle: saline)?
A: 99 % of control

Q: And the T/C (dose: 10.0 mg/kg/injection, schedule: Q01DX005 (ip), vehicle: saline)?
A: 96 % of control

Q: And the T/C (dose: 10.0 mg/kg/injection, schedule: Q01DX009 (ip), vehicle: saline)?
A: 113 % of control

Q: And the T/C (dose: 20.0 mg/kg/injection, schedule: Q01DX005 (ip), vehicle: saline)?
A: 101 % of control

Q: What about the T/C (dose: 20.0 mg/kg/injection, schedule: Q01DX009 (ip), vehicle: saline) of the same compound?
A: 107 % of control

Q: And the T/C (dose: 40.0 mg/kg/injection, schedule: Q01DX005 (ip), vehicle: saline)?
A: 101 % of control

Q: For NC(=O)N(CCCl)N=O, which T/C (dose: 0.5 mg/kg/injection, schedule: Q01DX005 (ip), vehicle: saline + alcohol) is on record?
A: 118 % of control

Q: And the T/C (dose: 2.0 mg/kg/injection, schedule: Q01DX005 (ip), vehicle: saline + alcohol)?
A: 276 % of control
